Laboratory results reported in ChEMBL document CHEMBL3875166, “Synthesis and biological evaluation of new 6-hydroxypyridazinone benzisoxazoles: Potential multi-receptor-targeting atypical antipsychotics” (Eur J Med Chem, 2016).

Tests used:
[1] = biological target: D(2) dopamine receptor (Rattus norvegicus, UniProt P61169); assay: Displacement of [3H]spiperone from dopamine D2 receptor in Sprague-Dawley rat striatum incubated for 30 mins by liquid scintillation counting analysis
[2] = biological target: T1, Adrenergic receptor alpha-1 (Rattus norvegicus, UniProt P15823+P23944+P43140); assay: Displacement of [3H]prazosin from adrenergic alpha1 receptor in Sprague-Dawley rat cerebral cortex incubated for 60 mins by liquid scintillation counting analysis
T1 sequence (P15823 whole entry): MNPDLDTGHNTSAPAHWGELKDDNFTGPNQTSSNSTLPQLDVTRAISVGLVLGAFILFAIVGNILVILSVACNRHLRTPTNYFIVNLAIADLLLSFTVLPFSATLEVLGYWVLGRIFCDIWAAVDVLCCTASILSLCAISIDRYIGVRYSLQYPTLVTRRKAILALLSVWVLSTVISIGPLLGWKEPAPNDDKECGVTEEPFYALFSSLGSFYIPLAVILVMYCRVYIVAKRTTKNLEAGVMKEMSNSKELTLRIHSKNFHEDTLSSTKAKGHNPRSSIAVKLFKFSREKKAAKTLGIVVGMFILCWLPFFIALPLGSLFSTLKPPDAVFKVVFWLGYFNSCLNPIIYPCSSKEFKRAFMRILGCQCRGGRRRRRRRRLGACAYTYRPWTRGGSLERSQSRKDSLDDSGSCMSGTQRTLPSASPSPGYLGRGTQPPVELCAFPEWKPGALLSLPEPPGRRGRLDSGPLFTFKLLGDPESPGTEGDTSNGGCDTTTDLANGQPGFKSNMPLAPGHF
T1 sequence (P23944 whole entry): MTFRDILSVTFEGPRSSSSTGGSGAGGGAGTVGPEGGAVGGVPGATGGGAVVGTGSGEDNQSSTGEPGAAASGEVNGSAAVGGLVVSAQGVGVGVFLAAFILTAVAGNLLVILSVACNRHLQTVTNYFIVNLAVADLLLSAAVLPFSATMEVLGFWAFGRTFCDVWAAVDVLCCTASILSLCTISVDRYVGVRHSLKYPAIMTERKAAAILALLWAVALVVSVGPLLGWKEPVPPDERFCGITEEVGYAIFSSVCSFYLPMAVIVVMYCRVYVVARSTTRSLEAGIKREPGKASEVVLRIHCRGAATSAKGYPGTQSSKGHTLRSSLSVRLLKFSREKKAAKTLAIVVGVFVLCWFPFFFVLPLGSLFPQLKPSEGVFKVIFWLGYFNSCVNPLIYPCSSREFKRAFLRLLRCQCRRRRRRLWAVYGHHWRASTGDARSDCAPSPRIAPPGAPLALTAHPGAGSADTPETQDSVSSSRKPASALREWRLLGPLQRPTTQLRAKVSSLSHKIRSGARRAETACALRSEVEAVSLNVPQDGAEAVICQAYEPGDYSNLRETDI
T1 sequence (P43140 whole entry): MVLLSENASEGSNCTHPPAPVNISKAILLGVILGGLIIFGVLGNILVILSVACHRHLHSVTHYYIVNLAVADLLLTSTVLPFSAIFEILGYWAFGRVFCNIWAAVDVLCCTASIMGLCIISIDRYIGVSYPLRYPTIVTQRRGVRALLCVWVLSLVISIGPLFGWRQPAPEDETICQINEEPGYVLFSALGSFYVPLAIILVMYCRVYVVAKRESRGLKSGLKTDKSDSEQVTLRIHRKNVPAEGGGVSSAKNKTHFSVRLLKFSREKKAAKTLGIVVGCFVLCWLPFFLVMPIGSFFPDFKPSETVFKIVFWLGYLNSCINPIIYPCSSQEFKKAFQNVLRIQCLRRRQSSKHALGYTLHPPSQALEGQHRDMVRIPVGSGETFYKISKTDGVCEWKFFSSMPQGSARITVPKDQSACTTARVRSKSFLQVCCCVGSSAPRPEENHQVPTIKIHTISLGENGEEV

[3] = biological target: T2, 5-hydroxytryptamine receptor 2C (Rattus norvegicus, UniProt P08909); assay: Displacement of [3H]mesulergine from 5-HT2C receptor in Sprague-Dawley rat cerebral cortex incubated for 15 mins in presence of spiperone by liquid scintillation counting analysis
T2 sequence (P08909 whole entry): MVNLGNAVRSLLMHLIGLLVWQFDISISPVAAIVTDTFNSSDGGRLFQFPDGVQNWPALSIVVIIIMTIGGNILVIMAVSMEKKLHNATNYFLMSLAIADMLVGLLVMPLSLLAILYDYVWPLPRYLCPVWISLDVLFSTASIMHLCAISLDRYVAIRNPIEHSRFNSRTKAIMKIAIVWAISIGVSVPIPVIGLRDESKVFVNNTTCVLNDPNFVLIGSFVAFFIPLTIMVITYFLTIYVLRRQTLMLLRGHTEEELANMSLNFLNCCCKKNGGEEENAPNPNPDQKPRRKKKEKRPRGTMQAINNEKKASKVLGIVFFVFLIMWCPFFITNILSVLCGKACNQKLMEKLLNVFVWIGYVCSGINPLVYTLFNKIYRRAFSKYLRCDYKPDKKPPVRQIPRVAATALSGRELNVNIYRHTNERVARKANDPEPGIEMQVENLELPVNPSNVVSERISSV

[4] = biological target: 5-hydroxytryptamine receptor 6 (Homo sapiens, UniProt P50406); assay: Displacement of [3H]lysergic acid diethylamide from human recombinant 5-HT6 receptor expressed in CHO cell membranes for 30 mins by liquid scintillation counting analysis
[5] = Induction of catalepsy in po dosed Chinese Kun Ming mouse assessed as increase in unwanted extrapyramidal motor disturbances measured for 60 seconds; assay type: organism-based; settings: in vivo, 1 min
[6] = biological target: Histamine H1 receptor (Cavia porcellus, UniProt P31389); assay: Displacement of [3H]mepyramine from histamine H1 receptor in guinea pig cerebellum incubated for 60 mins by liquid scintillation counting analysis
[7] = system: Mus musculus; assay: Inhibition of MK-801 induced hyperactivity in po dosed Chinese Kun Ming mouse administered for 60 mins followed by MK-801 challenge and measured for 90 mins; assay type: functional
[8] = Therapeutic index, ratio of ED50 for induction of catalepsy in po dosed Chinese Kun Ming mouse to ED50 for inhibition of MK-801 induced hyperactivity in po dosed Chinese Kun Ming mouse; assay type: organism-based; settings: in vivo, read-out: Ratio ED50
[9] = biological target: T3, 5-hydroxytryptamine receptor 1A (Rattus norvegicus, UniProt P19327); assay: Displacement of [3H]8-OH-DPAT from 5-HT1A receptor in Sprague-Dawley rat cerebral cortex incubated for 30 mins by liquid scintillation counting analysis
T3 sequence (P19327 whole entry): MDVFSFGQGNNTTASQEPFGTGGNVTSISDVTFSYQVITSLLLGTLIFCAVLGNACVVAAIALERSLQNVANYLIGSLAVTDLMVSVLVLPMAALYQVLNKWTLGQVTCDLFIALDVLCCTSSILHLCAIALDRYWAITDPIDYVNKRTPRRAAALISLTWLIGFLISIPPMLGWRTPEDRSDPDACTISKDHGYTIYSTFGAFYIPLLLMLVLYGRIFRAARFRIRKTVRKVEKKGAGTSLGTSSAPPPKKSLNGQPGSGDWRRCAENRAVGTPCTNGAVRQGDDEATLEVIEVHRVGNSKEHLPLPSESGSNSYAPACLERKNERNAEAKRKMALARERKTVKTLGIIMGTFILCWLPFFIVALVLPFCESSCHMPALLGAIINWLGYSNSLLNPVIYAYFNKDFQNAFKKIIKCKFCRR

[10] = Therapeutic index, ratio of ED50 for induction of catalepsy in po dosed Chinese Kun Ming mouse to ED50 for inhibition of apomorphine-induced climbing behavior in po dosed Chinese Kun Ming mouse; assay type: organism-based; settings: in vivo, read-out: Ratio ED50
[11] = system: Mus musculus; assay: Inhibition of apomorphine-induced climbing behavior in po dosed Chinese Kun Ming mouse administered for 30 mins followed by apomorphine challenge and measured for 10 to 30 mins; assay type: functional
[12] = Toxicity in po dosed Chinese Kun Ming mouse assessed as lethality after 24 hrs; assay type: organism-based; settings: in vivo
[13] = biological target: 5-hydroxytryptamine receptor 2A (Rattus norvegicus, UniProt P14842); assay: Displacement of [3H] ketanserin from 5-HT2A receptor in Sprague-Dawley rat cerebral cortex incubated for 30 mins by liquid scintillation counting analysis
5-hydroxytryptamine receptor 2A, sequence (P14842 whole entry): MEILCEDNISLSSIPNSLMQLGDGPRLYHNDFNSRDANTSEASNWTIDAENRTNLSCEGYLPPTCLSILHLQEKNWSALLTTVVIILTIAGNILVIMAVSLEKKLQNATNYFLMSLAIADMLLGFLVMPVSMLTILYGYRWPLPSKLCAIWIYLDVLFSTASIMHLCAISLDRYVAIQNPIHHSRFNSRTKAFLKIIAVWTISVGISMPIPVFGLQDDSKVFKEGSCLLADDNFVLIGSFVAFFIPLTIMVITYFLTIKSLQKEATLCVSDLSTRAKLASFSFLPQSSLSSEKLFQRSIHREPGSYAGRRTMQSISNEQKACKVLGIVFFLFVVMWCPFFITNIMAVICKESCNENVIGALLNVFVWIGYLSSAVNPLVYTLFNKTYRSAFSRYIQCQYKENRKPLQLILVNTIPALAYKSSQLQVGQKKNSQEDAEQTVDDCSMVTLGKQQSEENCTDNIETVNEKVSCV

D(2) dopamine receptor, sequence (P61169 whole entry): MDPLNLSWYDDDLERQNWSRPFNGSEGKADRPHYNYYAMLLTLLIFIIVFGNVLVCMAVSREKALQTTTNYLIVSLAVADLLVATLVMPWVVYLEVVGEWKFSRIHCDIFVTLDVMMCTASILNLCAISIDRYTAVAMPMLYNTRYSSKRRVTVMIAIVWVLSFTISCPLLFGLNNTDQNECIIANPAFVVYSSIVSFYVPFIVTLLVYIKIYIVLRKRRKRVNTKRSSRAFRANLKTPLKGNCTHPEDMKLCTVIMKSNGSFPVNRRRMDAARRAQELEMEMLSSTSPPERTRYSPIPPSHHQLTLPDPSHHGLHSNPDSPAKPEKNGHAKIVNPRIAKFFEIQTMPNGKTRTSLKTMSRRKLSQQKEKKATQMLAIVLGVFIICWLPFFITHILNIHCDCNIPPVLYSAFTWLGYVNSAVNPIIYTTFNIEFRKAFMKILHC
5-hydroxytryptamine receptor 6, sequence (P50406 whole entry): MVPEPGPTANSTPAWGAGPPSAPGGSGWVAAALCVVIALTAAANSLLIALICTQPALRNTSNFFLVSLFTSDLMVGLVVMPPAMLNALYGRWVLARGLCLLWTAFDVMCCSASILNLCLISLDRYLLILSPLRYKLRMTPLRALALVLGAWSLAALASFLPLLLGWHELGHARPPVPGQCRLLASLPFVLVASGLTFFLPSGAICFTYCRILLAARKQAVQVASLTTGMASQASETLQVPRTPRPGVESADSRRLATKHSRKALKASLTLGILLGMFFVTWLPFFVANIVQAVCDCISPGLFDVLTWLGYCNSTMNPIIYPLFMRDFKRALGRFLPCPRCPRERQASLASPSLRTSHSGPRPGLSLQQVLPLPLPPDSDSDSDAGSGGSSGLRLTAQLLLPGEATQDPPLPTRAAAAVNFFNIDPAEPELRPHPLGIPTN
Histamine H1 receptor, sequence (P31389 whole entry): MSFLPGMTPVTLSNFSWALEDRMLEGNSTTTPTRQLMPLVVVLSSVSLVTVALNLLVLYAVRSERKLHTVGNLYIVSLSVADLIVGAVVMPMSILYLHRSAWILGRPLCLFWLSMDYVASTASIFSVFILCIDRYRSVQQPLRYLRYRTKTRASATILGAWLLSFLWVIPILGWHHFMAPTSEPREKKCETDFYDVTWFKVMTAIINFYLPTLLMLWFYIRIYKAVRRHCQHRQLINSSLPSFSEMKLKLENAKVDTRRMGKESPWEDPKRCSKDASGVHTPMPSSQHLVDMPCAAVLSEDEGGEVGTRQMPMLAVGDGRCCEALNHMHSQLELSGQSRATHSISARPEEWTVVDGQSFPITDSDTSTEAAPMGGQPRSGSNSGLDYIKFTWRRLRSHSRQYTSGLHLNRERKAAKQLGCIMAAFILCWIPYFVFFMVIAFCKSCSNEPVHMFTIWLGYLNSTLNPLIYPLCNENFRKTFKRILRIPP

Compound	Ki [1] [nM]	Ki [2] [nM]	Ki [3] [nM]	Ki [4] [nM]	ED50 [5] [mg/kg]	Ki [6] [nM]	ED50 [7] [mg/kg]	selectivity ratio [8]	Ki [9] [nM]	selectivity ratio [10]	ED50 [11] [mg/kg]	LD50 at 24 h [12] [mg/kg]	Ki [13] [nM]
O=c1ccc(OCCCN2CCC(c3noc4cc(F)ccc34)CC2)nn1-c1c(F)cccc1F	0.5	1098	1580	0.5	23.82	2000	0.3	79.4	5.9	50.7	0.47	> 2000	0.3
O=c1ccc(OCCCN2CCC(c3noc4cc(F)ccc34)CC2)nn1-c1cc(Cl)ccc1Cl	2.7	147	1	11.7		186							0.7
O=c1ccc(OCCCN2CCC(c3noc4cc(F)ccc34)CC2)nn1-c1cc(F)ccc1F	6.1	337	9.1	3.8		115			9				11.2
O=c1ccc(OCCCN2CCC(c3noc4cc(F)ccc34)CC2)nn1-c1cccc(Cl)c1Cl	0.2	118	177	113		16.6			9.3				0.5
O=C(CCCN1CCC(O)(c2ccc(Cl)cc2)CC1)c1ccc(F)cc1 [HALOPERIDOL]					0.56		0.19	2.95		3.11	0.18		
Cc1nc2n(c(=O)c1CCN1CCC(c3noc4cc(F)ccc34)CC1)CCCC2 [RISPERIDONE]					0.38		0.018				0.02		
